Measurements reported in US9586959B2, “Substituted tricyclic heterocycles as histamine 4 receptor inhibitors” (C&C RESEARCH LABORATORIES, priority 2011, dated 2017).

Columns and labels:
[1] = target: human histamine 4 receptor (hH4R) (Homo sapiens (Human), UniProt Q9H3N8); assay: Binding affinity of human histamine 4 receptor (hH4R), [3H] labeled histamine displacement; conditions: hH4R-overexpressed cell membrane, [3H] histamine
Outline: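 Membranes of hH4R-overexpressing cells (25 μg) incubated with compound and [3H]histamine (diluted to 1 μM before addition) for 30 min at 27° C. Non-specific binding defined with histamine (100 μM before addition); bound radioligand collected by filtration on PEI-presoaked glass fibre, washed with 50 mM Tris-HCl pH 7.4, counted by scintillation (CPM).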

[2] = target: human histamine 3 receptor (hH3R) (Homo sapiens (Human), UniProt Q9Y5N1); assay: Binding affinity of human histamine 3 receptor (hH3R), [3H] labeled N-α-methylhistamine displacement; conditions: hH3R-overexpressed cell membrane, [3H] N-α-methylhistamine
Sequence of human histamine 3 receptor (hH3R) (Q9Y5N1 whole entry): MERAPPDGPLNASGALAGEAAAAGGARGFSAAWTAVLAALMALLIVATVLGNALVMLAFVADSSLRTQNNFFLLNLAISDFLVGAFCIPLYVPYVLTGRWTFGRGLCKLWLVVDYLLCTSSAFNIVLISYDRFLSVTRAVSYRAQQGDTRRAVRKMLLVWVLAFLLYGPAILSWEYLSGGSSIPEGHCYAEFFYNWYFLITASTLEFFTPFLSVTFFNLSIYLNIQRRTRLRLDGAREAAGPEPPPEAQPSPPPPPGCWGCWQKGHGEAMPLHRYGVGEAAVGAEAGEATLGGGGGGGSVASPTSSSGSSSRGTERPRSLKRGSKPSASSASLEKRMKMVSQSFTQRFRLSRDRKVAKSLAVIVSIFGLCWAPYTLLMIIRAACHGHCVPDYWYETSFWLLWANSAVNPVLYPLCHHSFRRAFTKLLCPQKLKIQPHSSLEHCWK
Outline: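 Membranes from cells overexpressing hH3R (15 μg) were incubated with compound and [3H]N-α-methylhistamine (20 μM stock) in 50 mM Tris-HCl pH 7.4, 5 mM MgCl2 for 30 min at 27 °C. Bound radioligand was counted by scintillation after filtration; 200 μM (R)(−)-α-methylhistamine stock defined non-specific binding; IC50 derived.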

[3] = Mouse pharmacokinetics (oral); assay type: in vivo; conditions: plasma, 50 mg/kg, ICR mouse, 5 mg/mL solution at 10 mL/kg; for AUC(0-inf): read-out: Mouse pharmacokinetics AUCinf; for half-life: read-out: Mouse pharmacokinetics t1/2 (converted)
Protocol: The weight of each ICR mouse and SD rat was properly 20˜30 g and 200˜300 g, and dosage of the compound of the present invention was 10 mL/kg for mice and 5 mL/kg for rats, and administered orally using Zonde. Blood collection was performed at 0.25, 0.5, 1, 2, 4, 6, 8 and 24 hours by orbital venous blood collection using a capillary tube coated with an anticoagulant, and then plasma was isolated using a centrifuge and kept in a freezer.
Plasma collected from animals and standard concentration material were pretreated using solid-phase extraction, and concentration of the compound of the invention was determined using a liquid chromatography mass spectrometer (Agilent HPLC, API-3000).
According to the resulting concentration value, the pharmacokinetics parameter was found using WinNonlin (Version 6.2) and half-life (t1/2), maximum blood concentration (Cmax) and infinite area under the curve (AUCinf) are shown in Tables 6 and 7 below.

[4] = test system: histamine-induced itching, ICR mice; assay: Histamine-induced itching model in ICR mice; assay type: in vivo; conditions: 50 mg/kg oral, histamine 300 nmol intradermal, 20 min count
Protocol: Female, ICR mice (8 weeks old) were purchased from OrientBio Co., Ltd. The animals were housed under conditions of controlled temperature (23±3° C.), humidity (50±5%) and lighting with food and water available ad libitum.
The hair was clipped using clippers (8000AD, THRIVE) over the rostral part of the back 24 hours before the experiment under anesthesia with isoflurane. Histamine (300 nmol) was dissolved in saline and a volume of 40 μL injected intradermally into the rostral part of the back. Mice were dosed with either vehicle (20% cyclodextrin in second distilled water) or the compound by orally administration. The Compound (50 mg/kg) dissolved in a vehicle (20% cyclodextrin in second distilled water) and administered orally at a volume of 10 mL/kg.
Mice (n=10 per group) were divided into 3 groups (normal group, control group and experimental group). The animals were randomized for similar body weight distribution. A vehicle or the compound was administered 20 minutes before injection of histamine or saline. Immediately after intradermal injection, the animals were returned to an acrylic cage (approximately 30×30×30 cm, access production) composed of four cells, to which they had been acclimated for at least 1 hour before the experiment, for observation of itch responses. A camera (Samsung, VLUUNV30) was positioned above the mice to record their response. Itch was measured by blinded counting of the number of scratching in the 20 min period immediately after the intradermal injection. A number of scratching was defined as 3 or more individual rapid scratch movements with the hind paws around the injection site (J. Allergy Clin. Immunol. 2007, 19(1), 176-183). All data were analyzed by using Excel and Prism, and all values are expressed as the mean±S.E.M. The inhibitory effect of compounds is shown as a percentage of the maximal response to histamine (100% control group).
Statistical analysis was analyzed using one-way ANOVA with Dunnett test. Values of p<0.05 were considered statistically significant.

[5] = Metabolic stability in human microsome; conditions: for Metabolic stability (CLh. int), Human: human microsome 1 mg/mL, 5 μM compound, 1 mM NADPH

Row | IC50 [1] | IC50 [2] | Cmax [3] | AUC(0-inf) [3] | half-life [3] | Metabolic stability (CLh. int), Human [5] | Structure (SMILES) | Number of scratching (% changes from control group) [4] | % remaining in 30 minutes ([5]; human microsome, 30 minutes)
1 | 133 nM | > 100000 nM | 6570 ng/mL | 16500 ng·h/mL | 1.28 h | – | Clc1cnc2nc(N3CCNCC3)c3nncn3c2c1 [Compound 7, 8-Chloro-4-(piperazin-1-yl)pyrido[2,3-e][1,2,4]triazolo[4,3-a]pyrazine] | 61.2^1% | NC^y: Not calculable (99.8% remaining in 30 minutes)
2 | 55 nM | > 100000 nM | 12300 ng/mL | 23700 ng·h/mL | 1.32 h | 4200 µL/min/mg | CNC1CN(c2nc3ncc(Cl)cc3n3cnnc23)C1 [Compound 18, 1-(8-Chloropyrido[2,3-e][1,2,4]triazolo[4,3-a]pyrazin-4-yl)-N-methylazetidin-3-amine] | 84.3^1% | –
3 | 65 nM | > 100000 nM | 10200 ng/mL | 21600 ng·h/mL | 1.46 h | 400 µL/min/mg | CNC1CN(c2nc3ncc(I)cc3n3cnnc23)C1 [Compound 48, 1-(8-Iodopyrido[2,3-e][1,2,4]triazolo[4,3-a]pyrazin-4-yl)-N-methylazetidin-3-amine] | 67.3^1% | –

More lines, now with the values behind:

Row | Structure (SMILES) | IC50 [1] | IC50 [2] | Cmax [3] | AUC(0-inf) [3] | half-life [3] | Metabolic stability (CLh. int), Human [5] | Number of scratching (% changes from control group) [4] | % remaining in 30 minutes ([5]; human microsome, 30 minutes)
4 | CN1CCN(c2nc3ncc(Cl)cc3n3cnnc23)CC1 [Compound 4, 8-Chloro-4-(4-methylpiperazin-1-yl)pyrido[2,3-e][1,2,4]triazolo[4,3-a]pyrazine] | 40 nM | 90000 nM | 14900 ng/mL | 35600 ng·h/mL | 2.21 h | 2200 µL/min/mg | 94.3^1% | –
5 | CNC1CN(c2nc3ncc(Br)cc3n3cnnc23)C1 [Compound 24, 1-(8-Bromopyrido[2,3-e][1,2,4]triazolo[4,3-a]pyrazin-4-yl)-N-methylazetidin-3-amine] | 36 nM | > 100000 nM | 18900 ng/mL | 32200 ng·h/mL | 0.96 h | 1330 µL/min/mg | 93.6^1% | –
6 | CNC1CN(c2nc3ncc(Br)cc3n3nnnc23)C1 [Compound 95, 1-(8-Bromopyrido[2,3-e]tetrazolo[1,5-a]pyrazin-4-yl)-N-methylazetidin-3-amine] | 44 nM | > 100000 nM | 15400 ng/mL | 98300 ng·h/mL | 4.03 h | 5500 µL/min/mg | 98.2^1% | –
